According to patent US20150051295A1, “USE OF PROPANOL AND PROPENOL DERIVATIVES AS ANTIOXIDANTS” (MERCK PATENT GmbH, priority 2011, published 2015):

Assay: Determination of the reducing (=antioxidative) property: TLC plate chromatographed, then sprayed with potassium permanganate solution
Conditions: substance in MTB ether on TLC silica gel 60F254 plate, heptane/ethyl acetate 2/1, then sprayed with freshly prepared KMnO4/NaOH solution
Procedure: Determination of the reducing (=antioxidative) property of 3-(4-tert-butyl phenyl)-1-(4-methoxyphenyl)prop-2-en-1-ol (substance 1a) and of 3-(4-tert-butylphenyl)-1-(4-methoxyphenyl)propan-1-ol (substance 2a): a little substance is dissolved in MTB ether and applied to a TLC plate (TLC silica gel 60F254 plate). The plate is chromatographed with heptane/ethyl acetate 2/1. […] The Rf values are at 0.61 (substance 2a) and 0.35 (substance 1a).

SMILES	reducing (=antioxidative) property: decolourisation of potassium permanganate spray solution at substance spots
COc1ccc(C(O)/C=C/c2ccc(C(C)(C)C)cc2)cc1 (centres unmarked) [substance 1a, 3-(4-tert-butylphenyl)-1-(4-methoxyphenyl)prop-2-en-1-ol]	decolorises at the substance spots
COc1ccc(C(O)CCc2ccc(C(C)(C)C)cc2)cc1 (centres unmarked) [substance 2a, 3-(4-tert-butylphenyl)-1-(4-methoxyphenyl)propan-1-ol]	decolorises at the substance spots
